The values that follow come from article PMC3131519 (Frontiers in Microbiology, 2011).

Data set [1] concerns P. aeruginosa (ATCC 19429). Nature of the data set: Galleria mellonella infection by P. aeruginosa, treatment survival. As to conditions: 1 × 10^3 CFU P. aeruginosa, single dose 5 μg ciprofloxacin. The class given is in vivo.
The test system of data set [2] is red blood cells. The following applies: 100 μg/ml peptide; ref de Latour et al., 2010; Dean et al., 2011; cited from earlier work.

On to `O=C(O)c1cn(C2CC2)c2cc(N3CCNCC3)c(F)cc2c1=O` [ciprofloxacin], for which the “effectiveness at prolonging survival vs infected control, in words” value in data set [1] is “effective”.
Take ATRA: the hemolysis result in data set [2] is reported as “no significant hemolysis”.
